Patent US20230143612A1 (Arbutus Biopharma Corporation, priority 2020, published 2023)

Each compound was assayed against PD-L1 His protein / PD-1 Fc protein (Homo sapiens, UniProt Q9NZQ7) (assay: HTRF Assay (PD-1/PD-L1 interaction)). Conditions: PD-L1 His 6 nM, PD-1 Fc 6 nM.
Chain of PD-L1 His protein / PD-1 Fc protein (Q9NZQ7 19-238 limits assumed): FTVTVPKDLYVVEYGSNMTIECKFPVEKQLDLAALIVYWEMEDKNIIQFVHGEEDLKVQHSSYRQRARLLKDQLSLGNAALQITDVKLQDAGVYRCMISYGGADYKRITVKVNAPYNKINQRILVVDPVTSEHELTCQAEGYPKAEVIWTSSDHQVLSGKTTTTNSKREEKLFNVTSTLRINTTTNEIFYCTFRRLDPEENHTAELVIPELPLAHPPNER
Type: binding
Procedure, shortened: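 HTRF: PD-L1 His (6 nM final), compound (3-fold dilutions, 20 μM to 0.001 μM final) and PD-1 Fc (6 nM final) preincubated 15 min at room temperature. Anti-human IgG-XL665 and anti-6HIS Tb cryptate (mixed at 6.7 nM and 0.35 nM) then added for 1 h at room temperature before reading.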
For COc1cc(-c2ccc(CNC[C@@H]3CCC(=O)N3)c(OC)n2)c(Cl)c(-c2cccc(-c3ccn4c(=O)c(CNC[C@@H]5CCC(=O)N5)cnc4c3)c2Cl)c1 [Example 146, 8-(2,2′-Dichloro-5′-methoxy-3′-(6-methoxy-5-(((((S)-5-oxopyrrolidin-2-yl)methyl)amino)methyl)pyridin-2-yl)-[1,1′-biphenyl]-3-yl)-3-(((((S)-5-oxopyrrolidin-2-yl)methyl)amino)methyl)-4H-pyrido[1,2-a]pyrimidin-4-one], the IC50 was 240 nM. With COc1nc(-c2cccc(-c3cccc(-c4ccn5c(=O)c(CNC[C@@H]6CCC(=O)N6)cnc5c4)c3Cl)c2Cl)cc(F)c1CNC[C@@H]1CCC(=O)N1 [Example 147, 8-(2,2′-Dichloro-3′-(4-fluoro-6-methoxy-5-(((((S)-5-oxopyrrolidin-2-yl)methyl)amino)methyl)pyridin-2-yl)-[1,1′-biphenyl]-3-yl)-3-(((((S)-5-oxopyrrolidin-2-yl)methyl)amino)methyl)-4H-pyrido[1,2-a]pyrimidin-4-one] the IC50 was 3.9 nM. Compound COc1nc(-c2cccc(-c3cccc(-c4ccn5c(=O)c(CN6C[C@@H](O)C[C@H]6C(=O)O)cnc5c4)c3Cl)c2Cl)ccc1CNC[C@@H]1CCC(=O)N1 [Example 148, (2S,4S)-1-((8-(2,2′-Dichloro-3′-(6-methoxy-5-(((((S)-5-oxopyrrolidin-2-yl)methyl)amino)methyl)pyridin-2-yl)-[1,1′-biphenyl]-3-yl)-4-oxo-4H-pyrido[1,2-a]pyrimidin-3-yl)methyl)-4-hydroxypyrrolidine-2-carboxylic acid] has an IC50 of 0.4 nM. COc1nc(-c2cccc(-c3cccc(-c4ccn5c(=O)c(CN6C[C@@H](O)C[C@@H]6C(=O)O)cnc5c4)c3Cl)c2Cl)ccc1CNC[C@@H]1CCC(=O)N1 [Example 149, (2R,4S)-1-((8-(2,2′-Dichloro-3′-(6-methoxy-5-(((((S)-5-oxopyrrolidin-2-yl)methyl)amino)methyl)pyridin-2-yl)-[1,1′-biphenyl]-3-yl)-4-oxo-4H-pyrido[1,2-a]pyrimidin-3-yl)methyl)-4-hydroxypyrrolidine-2-carboxylic acid] showed an IC50 of 0.3 nM. With COC[C@@H](NCc1cnc2cc(-c3cccc(-c4cccc(-c5ccc(CNC[C@@H]6CCC(=O)N6)c(OC)n5)c4Cl)c3Cl)ccn2c1=O)C(=O)O [Example 150, N-((8-(2,2′-Dichloro-3′-(6-methoxy-5-(((((S)-5-oxopyrrolidin-2-yl)methyl)amino)methyl)-pyridin-2-yl)-[1,1′-biphenyl]-3-yl)-4-oxo-4H-pyrido[1,2-a]pyrimidin-3-yl)methyl)-O-methyl-D-serine] the IC50 was 0.3 nM. COc1nc(-c2cccc(-c3cccc(-c4ccn5c(=O)c(CN[C@@H](CO)C(=O)O)cnc5c4)c3Cl)c2Cl)ccc1CNC[C@@H]1CCC(=O)N1 [Example 151, ((8-(2,2′-Dichloro-3′-(6-methoxy-5-(((((S)-5-oxopyrrolidin-2-yl)methyl)amino)methyl)pyridin-2-yl)-[1,1′-biphenyl]-3-yl)-4-oxo-4H-pyrido[1,2-a]pyrimidin-3-yl)methyl)-L-serine] gave an IC50 of 0.3 nM. COc1nc(-c2cccc(-c3cccc(-c4ccn5c(=O)c(CN6CCN7C(=O)CCC7C6)cnc5c4)c3Cl)c2Cl)ccc1CNC[C@@H]1CCC(=O)N1 (stereo partly drawn) [Example 152, 8-(2,2′-Dichloro-3′-(6-methoxy-5-(((((S)-5-oxopyrrolidin-2-yl)methyl)amino)methyl)pyridin-2-yl)-[1,1′-biphenyl]-3-yl)-3-((6-oxohexahydropyrrolo[1,2-a]pyrazin-2(1H)-yl)methyl)-4H-pyrido[1,2-a]pyrimidin-4-one] gave an IC50 of 3.1 nM. Work on COc1nc(-c2cccc(-c3cccc(-c4ccn5c(=O)c(CN6CCCC6CO)cnc5c4)c3Cl)c2Cl)ccc1CNC[C@@H]1CCC(=O)N1 (stereo partly drawn) [Example 153, 8-(2,2′-Dichloro-3′-(6-methoxy-5-(((((S)-5-oxopyrrolidin-2-yl)methyl)amino)methyl)pyridin-2-yl)-[1,1′-biphenyl]-3-yl)-3-((2-(hydroxymethyl)pyrrolidin-1-yl)methyl)-4H-pyrido[1,2-a]pyrimidin-4-one] yielded an IC50 of 0.8 nM. Compound COc1nc(-c2cccc(-c3cccc(-c4ccn5c(=O)c(CNC(C)(C)CC(=O)O)cnc5c4)c3Cl)c2Cl)ccc1CNC[C@@H]1CCC(=O)N1 [Example 154, (S)-3-(((8-(2,2′-Dichloro-3′-(6-methoxy-5-((((5-oxopyrrolidin-2-yl)methyl)amino)-methyl)pyridin-2-yl)-[1,1′-biphenyl]-3-yl)-4-oxo-4H-pyrido[1,2-a]pyrimidin-3-yl)methyl)amino)-3-methylbutanoic acid] has an IC50 of 0.4 nM. Work on COc1cc(-c2cccc(-c3cccc(-c4ccc(CNC[C@@H]5CCC(=O)N5)c(OC)n4)c3Cl)c2Cl)cc2c1CN(C[C@@H]1CCC(=O)N1)CC2 [Example 155, (S)-5-((6-(2,2′-Dichloro-3′-(6-methoxy-5-(((((S)-5-oxopyrrolidin-2-yl)methyl)amino)-methyl)pyridin-2-yl)-[1,1′-biphenyl]-3-yl)-8-methoxy-3,4-dihydroisoquinolin-2(1H)-yl)methyl)pyrrolidin-2-one] yielded an IC50 of 0.4 nM. With COc1nc(-c2cccc(-c3cccc(-c4ccn5c(=O)cc(CNC[C@@H]6CCC(=O)N6)nc5c4)c3Cl)c2Cl)ccc1CNC[C@@H]1CCC(=O)N1 [Example 156, 8-(2,2′-Dichloro-3′-(6-methoxy-5-(((((S)-5-oxopyrrolidin-2-yl)methyl)amino)methyl)pyridin-2-yl)-[1,1′-biphenyl]-3-yl)-2-(((((S)-5-oxopyrrolidin-2-yl)methyl)amino)methyl)-4H-pyrido[1,2-a]pyrimidin-4-one] the IC50 was 1.4 nM. In the case of COc1nc(-c2cccc(-c3cccc(-c4ccn5c(=O)c(CNC[C@@H]6CCC(=O)N6)cnc5c4)c3Cl)c2Cl)ccc1CN1CC(C)(O)C1 [Example 157, (S)-8-(2,2′-Dichloro-3′-(5-((3-hydroxy-3-methylazetidin-1-yl)methyl)-6-methoxypyridin-2-yl)-[1,1′-biphenyl]-3-yl)-3-((((5-oxopyrrolidin-2-yl)methyl)amino)methyl)-4H-pyrido[1,2-a]pyrimidin-4-one], the IC50 is reported as 1.6 nM. COc1nc(-c2cccc(-c3cccc(-c4ccn5c(=O)c(CNC[C@@H]6CCC(=O)N6)cnc5c4)c3Cl)c2Cl)ccc1CN[C@H]1C[C@H](O)C1 [Example 158, 8-(2,2′-Dichloro-3′-(5-((((1r,3r)-3-hydroxycyclobutyl)amino)methyl)-6-methoxypyridin-2-yl)-[1,1′-biphenyl]-3-yl)-3-(((((S)-5-oxopyrrolidin-2-yl)methyl)amino)methyl)-4H-pyrido[1,2-a]pyrimidin-4-one] was tested, and the IC50 was 2 nM. COc1nc(-c2cccc(-c3cccc(-c4ccn5c(=O)c(CNC[C@@H]6CCC(=O)N6)cnc5c4)c3Cl)c2Cl)ccc1CN1CC(CO)(CO)C1 [Example 159, (S)-8-(3′-(5-((3,3-Bis(hydroxymethyl)azetidin-1-yl)methyl)-6-methoxypyridin-2-yl)-2,2′-dichloro-[1,1′-biphenyl]-3-yl)-3-((((5-oxopyrrolidin-2-yl)methyl)amino)methyl)-4H-pyrido[1,2-a]pyrimidin-4-one] showed an IC50 of 1.3 nM. Compound COc1nc(-c2cccc(-c3cccc(-c4ccn5c(=O)c(CNCCCC(=O)O)cnc5c4)c3Cl)c2Cl)ccc1CNC[C@@H]1CCC(=O)N1 [Example 160, (S)-4-(((8-(2,2′-Dichloro-3′-(6-methoxy-5-((((5-oxopyrrolidin-2-yl)methyl)amino)methyl)pyridin-2-yl)-[1,1′-biphenyl]-3-yl)-4-oxo-4H-pyrido[1,2-a]pyrimidin-3-yl)methyl)amino)butanoic acid] has an IC50 of 0.7 nM. With COc1nc(-c2cccc(-c3cccc(-c4ccn5c(=O)c(C6=NCC(O)CN6)cnc5c4)c3Cl)c2Cl)ccc1CNC[C@@H]1CCC(=O)N1 (stereo partly drawn) [Example 161, 8-(2,2′-Dichloro-3′-(6-methoxy-5-(((((S)-5-oxopyrrolidin-2-yl)methyl)amino)methyl)pyridin-2-yl)-[1,1′-biphenyl]-3-yl)-3-(5-hydroxy-1,4,5,6-tetrahydropyrimidin-2-yl)-4H-pyrido[1,2-a]pyrimidin-4-one] the IC50 was 0.1 nM. COC(=O)C1CN(Cc2cnc3cc(-c4cccc(-c5cccc(-c6ccc(CNC[C@@H]7CCC(=O)N7)c(OC)n6)c5Cl)c4Cl)ccn3c2=O)C1 [Example 162, (S)-Methyl 1-((8-(2,2′-dichloro-3′-(6-methoxy-5-((((5-oxopyrrolidin-2-yl)methyl)amino)methyl)pyridin-2-yl)-[1,1′-biphenyl]-3-yl)-4-oxo-4H-pyrido[1,2-a]pyrimidin-3-yl)methyl)azetidine-3-carboxylate] gave an IC50 of 3.8 nM. For COc1nc(-c2cccc(-c3cccc(-c4ccn5c(=O)c(CN[C@H]6CCOC[C@@H]6O)cnc5c4)c3Cl)c2Cl)ccc1CNC[C@@H]1CCC(=O)N1 [Example 163], the IC50 was 0.8 nM. COc1nc(-c2cccc(-c3cccc(-c4ccn5c(=O)c(CNC[C@@H]6CCC(=O)N6)c(C)nc5c4)c3Cl)c2Cl)ccc1CNC[C@@H]1CCC(=O)N1 [Example 164, 8-(2,2′-Dichloro-3′-(6-methoxy-5-(((((S)-5-oxopyrrolidin-2-yl)methyl)amino)methyl)pyridin-2-yl)-[1,1′-biphenyl]-3-yl)-2-methyl-3-(((((S)-5-oxopyrrolidin-2-yl)methyl)amino)methyl)-4H-pyrido[1,2-a]pyrimidin-4-one] was tested, and the IC50 was 1.3 nM. In the case of COc1nc(-c2cccc(-c3cccc(-c4ccn5c(=O)c(CN6CC[C@H](O)C6)cnc5c4)c3Cl)c2Cl)ccc1CN1CC[C@H](O)C1 [Example 165, 8-(2,2′-Dichloro-3′-(5-(((S)-3-hydroxypyrrolidin-1-yl)methyl)-6-methoxypyridin-2-yl)-[1,1′-biphenyl]-3-yl)-3-(((S)-3-hydroxypyrrolidin-1-yl)methyl)-4H-pyrido[1,2-a]pyrimidin-4-one], the IC50 is reported as 0.1 nM.
